Laboratory results from patent publication US9446122B2, “Use of GK-1 peptide expressed on M13 filamentous phage as pharmaceutical ingredient to enhance the efficiency of the immune response induced by vaccine or pathogen antigens” (UNIVERSIDAD NACIONAL AUTONOMA DE MEXICO, priority 2011, dated 2016).

Assays:
[1] = tested on: immune response elicited by intranasally administered influenza vaccine; assay: Serum IgG after intranasal immunization, FGK-1 versus synthetic GK-1 (Example 5); format: in vivo, female BALB/cAnN mice
Experimental: The following treatment schedules were administered to five-mouse groups:
(§1) Influenza vaccine was administered at a dose of 1 μg/mouse [A/New Caledonia/20/99(H1N1) strain, A/Panama/2007/99(H3N2) strain (analog to A/Moscow/10/99 strain), and B/Victoria/504/2000 strain (analog to B/Sichuan/379/99 strain)]. FLUZONE® vaccine for the flu season 2004-2005, containing 45 μg of hemagglutinin HA per 0.5 ml-dose, was used.
(§2) Synthetic GK-1 peptide was used at its optimal dose (Segura-Velźquez et al. 2006), in a 10 μg/mouse concentration.
Mice were administered intranasally one single dose of each immunogen, and the induced response was evaluated in serum and bronchoalveolar lavages in different times after immunization, namely 21 and 45 days. Sera were obtained from peripheral blood, centrifuged at 5,000 rpm by 12 min, and aliquots were frozen until analysis. Bronchoalveolar lavages were obtained by performing intratracheal lavages with 300 μl of saline solution 45 days after immunization.

[2] = tested on: immune response elicited by influenza vaccine; assay: Serum IgG after subcutaneous immunization, FGK-1 versus synthetic GK-1 (Example 4); format: in vivo, female BALB/cAnN mice; settings: younger mice
Experimental: The following treatment schedules were assessed for five-mouse groups:
as §1, §2
Mice received a single dose of each immunogen by subcutaneous route at the tail base, and the induced response was evaluated in serum 21 days after immunization. Sera were obtained from peripheral blood, centrifuged at 5,000 rpm by 12 min, and aliquots were frozen until analysis.

G-Y-Y-Y-P-S-D-P-N-T-F-Y-A-P-P-Y-S-A (GYYYPSDPNTFYAPPYSA) [synthetic GK-1 peptide, 18-amino acid peptide derived from a Taenia solium cysticerci cDNA library]
potentiation of influenza vaccine by intranasal administration [1]: does not potentiate the vaccine | antibody levels versus vaccine alone ([2]; co-administered with influenza vaccine): does not increase antibody levels | antibody response versus influenza vaccine alone ([2]; subcutaneous, 21 days): slightly higher antibody response
